Source: article PMC4861903, “Synthesis of a highly water-soluble acacetin prodrug for treating experimental atrial fibrillation in beagle dogs” (Scientific Reports, 2016)

System: experimental AF induced by vagal nerve stimulation and burst atrial pacing
Assay: Vagal nerve stimulation-induced AF in beagle dogs
Type: in vivo
Details: for AF duration in animals with effective AF termination: vehicle 30 min
Protocol: The anti-AF effect of acacetin prodrug was investigated in AF model (with AF duration of 30 min), which was established in beagle dogs with modified procedure as described previously. After three-repeats of stable AF (30 min), drug treatment was applied on 4th repeat (Fig. 5A). Acacetin prodrug dissolved in 5% glucose was administrated intravenously after 1 min of onset of AF induction. A bolus of one third dosage was infused within 2 min, then two third of the dosage (3, 6, and 12 mg/kg) was continuously infused for 18 min. The AF disappeared within 30 min before stopping bilateral vagal nerve stimulation was considered to be effective termination of AF (Fig. 5B). Blood samples were collected at different time points (5, 10, 20, 30, 45 and 60 min) during the experiment to determine the plasma acacetin concentrations. Figure 5C illustrates the termination rate of AF by different doses of acacetin prodrug. […] In addition, AF induction was repeated at 40 min after discontinuous prodrug infusion. AF was terminated at 25.3 ±1.8 min after re-induction (P < 0.01 vs. vehicle) in these animals (n = 15) with drug treatment, but not in animals treated with 5% glucose vehicle (30 min duration). However, the duration of AF was longer than during the initial drug administration (25.3 ± 1.8 min vs.17.1 ± 1.3 min, P < 0.01).
Experimental AF was induced by vagal nerve stimulation in beagle dogs with modified procedure as described previously. Briefly, AF was generated by a 10-s burst atrial pacing with a 4-fold diastolic threshold potential (60-ms interval) after 30 s vagal nerve stimulation. If AF persisted for 30 min, it was terminated by stopping vagal nerve stimulation. The stable AF lasting for 30 min was repeated for three times (20 min interval), drug test (vehicle or different doses of acacetin prodrug) was then performed. A shortened duration of AF during the continuous vagal nerve stimulation was considered to be effective termination of AF for drug treatment. […]
China) were anesthetized with pentobarbital (40 mg/kg, i.v.), supplemented as necessary during the experiment. The animal was kept on an operation table maintained at 37°C, intubated and ventilated with room air. The left femoral vein was cannulated to maintain fluid balance, anesthesia, and test articles. Lead II electrocardiogram (ECG) was continuously monitored with using a digital recording system (RM6240, Chengdu Instruments, China)
An action potential (MAP) recording- and pacing-catheter (Boston Scientific Ltd) was introduced to the right atrium through right jugular vein, and an electrical pacing catheter was introduced to left ventricle via […] for ventricular pacing (when necessary).
Bilateral cervical vagal nerves were isolated and bipolar electrodes were placed to stimulate efferent vagal nerves with 15 Hz, 0.2 ms duration voltage step (80-100% threshold) to induce a 50% reduction of heart rate. Ventricular pacing was performed with 2-ms voltage pulses (2.5 Hz, 150% diastolic threshold) when vagal nerves were continuously stimulated. Experimental atrial fibrillation (AF) model is established in beagle dogs with modified procedure as described previously.8-10 Briefly, AF was generated by a 10-s burst atrial pacing with a 4-fold diastolic threshold potential (60 ms interval) after 30 s vagal nerves stimulation. If AF persisted for 30 min, AF was terminated by stopping vagal nerve stimulation. After stable persistent AF lasing for 30 min was repeated for three times (20 min interval), drug test (vehicle or different doses of phosphate sodium salt prodrug of acacetin) was performed. A shortened AF duration during the continuous vagal stimulation was considered to be effective termination of AF. All the biological signals were recorded using the digital recording system (RM6240, Chengdu […]
Instruments, China). […]
Sixty ICR mice (male, 30; female, 30) were stratified […]

## COc1ccc(-c2cc(=O)c3c(O)cc(OP(=O)([O-])[O-])cc3o2)cc1.[Na+].[Na+] [acacetin prodrug, phosphate sodium salt of acacetin]
3 mg/kg i.v. (1/3 bolus in 2 min, 2/3 infused 18 min), 3 of 6 dogs, vehicle 0%
  termination rate of AF: 50%
6 mg/kg i.v. (1/3 bolus in 2 min, 2/3 infused 18 min), 6 of 8 dogs, P < 0.05 vs. vehicle
  termination rate of AF: 75%
6 mg/kg i.v.
  AF duration in animals with effective AF termination: 17.2 ± 2.3 min
12 mg/kg i.v. (1/3 bolus in 2 min, 2/3 infused 18 min), 5 of 7 dogs, P < 0.05 vs. vehicle
  termination rate of AF: 71.4%
12 mg/kg i.v.
  AF duration in animals with effective AF termination: 15.5 ± 2.7 min
AF induction repeated at 40 min after discontinuous prodrug infusion, all doses pooled, n = 15, P < 0.01 vs. vehicle (30 min)
  AF terminated at, after re-induction: 25.3 ± 1.8 min
All doses pooled, animals with drug treatment
  duration of AF during the initial drug administration: 17.1 ± 1.3 min
